From patent US8367831B2, “Heterocyclic compound or salt thereof and intermediate thereof” (priority 2006, dated 2013)
Structures can show the parent of a compound that is named as a salt.

Assays:
[1] = Hygroscopicity of the salt (statement); format: physicochemical; settings: trihydrochloride salt
S. aureus FDA209P = experiment: Susceptibility test 1: MIC by micro-dilution method; format: cell-based; settings: Staphylococcus aureus, read-out: MIC (μg/mL) S. aureus FDA209P
Method: (§1) Test substances were initially dissolved in dimethylsulfoxide. Antibacterial activities (MICs) of the same compounds were determined by the micro-dilution method as recommended by the Japanese Society of Chemotherapy.
(§2) The bacteria cultured on Mueller-Hinton agar (MHA) plates at 35° C. overnight were suspended in sterile physiological saline in a concentration that was equivalent to 0.5 McFarland. The bacterial inoculum was prepared by 10-fold dilution of this suspension. Approximately 0.005 mL of the bacterial inoculum was inoculated into Cation-adjusted Mueller-Hinton broth (CAMHB, 100 μL/well) containing the test substance and was incubated at 35° C. overnight. The lowest concentration of the test substance at which no bacterial growth was macroscopically observed was determined as the MIC.

S. aureus F-3095 = experiment: as above; format: cell-based; settings: Staphylococcus aureus, F3095, read-out: MIC (μg/mL) S. aureus F-3095
Method: as §1, §2

[2] = test system: Staphylococcus aureus (S. aureus Smith); experiment: S. aureus infection experiment in mice; format: in vivo; settings: ICR mice, five per group, intraperitoneal infection, 1 hour after infection
Method: ICR mice (male, SPF grade, 4-week old, five mice per group) were used. A bacterial inoculum was prepared by suspending Staphylococcus aureus (S. aureus
Smith), which was cultured on a Mueller-Hinton agar plate at 37° C. overnight, in sterile physiological saline, preparing a bacterial solution of about 4×10^8 CFU/mL, and diluting the solution 10-fold in 5.6% mucin-phosphate buffer. ICR mice were intraperitoneally administered with the bacterial inoculum (approximately 2×10^7 CFU/mouse) to induce infection. Test substances were dissolved in 10% hydroxypropyl-β-cyclodextrin and 0.05 mol/L hydrochloric acid. […] The number of surviving mice was recorded on 5 days after the infection.

[3] = Safety (general statement); settings: qualitative statement, no comparator named
Description: The compound of the general formula [1] of the present invention has excellent safety. The safety can be evaluated by various tests, for example, by various types of safety tests selected from a cytotoxicity test, a selectivity test against DNA gyrase of human and various bacteria, a selectivity test against topoisomerase IV of human and various bacteria, an hERG test, a repeat-dose toxicity test, a cytochrome P450 (CYP) activity inhibition test, a metabolic dependence inhibition test, an in vivo mouse micronucleus test, an in vivo rat liver UDS test, and the like.

[4] = Antimicrobial activity (general statement); settings: qualitative statement, no comparator named
Cytotoxicity test (XTT) = format: cell-based; settings: African green monkey, vero cells, 3 days incubation, absorbance 450 nm, read-out: CC50 (concentration when cell proliferation was inhibited by 50%)
Method: Each test substance was dissolved in dimethyl sulfoxide and was prepared to each concentration with E-MEM containing 10% FBS, and then 0.1 mL of this solution was dispensed into each well of a 96-well microplate. A vero cell suspension containing 3×10^4 cells/mL was prepared with E-MEM containing 10% FBS, and 0.1 mL of the suspension was inoculated to each well. After incubation in 5% CO2 at 37° C. for 3 days, 50 μL of E-MEM containing 1 mg/mL of 2,3-bis-(2-methoxy-4-nitro-5-sulfophenyl)-5-[(phenylamino)carbonyl]-2H-tetrazolium, inner salt, monosodium salt (XTT) and 25 μM of phenazine methosulfate (PMS) was added to each well. After about 2 hours, the absorbance at 450 nm was measured with a microplate reader.
The absorbance ratio of each well supplied with the test substance and the control not containing the test substance was calculated, and the concentration of each compound when cell proliferation was inhibited by 50% (CC50; μg/mL) was calculated.

[5] = Tissue distribution (general statement); settings: qualitative statement, no comparator named
[6] = Metabolic stability (general statement); format: in vitro ADME; settings: qualitative statement, no comparator named
Description: The compound of the general formula [1] of the present invention has excellent metabolic stability. The metabolic stability can be evaluated by various tests, for example, by various types of stability tests selected from a human liver microsome metabolic stability test, a human S9 stability test, and the like.

SMILES	hygroscopicity [1]	MIC (S. aureus FDA209P) [µg/mL]	MIC (S. aureus F-3095) [µg/mL]	number of surviving mice on 5 days after the infection ([2]; 3 mg/kg subcutaneously once)	safety [3]	antimicrobial activity [4]	CC50 at 3 days (Cytotoxicity test (XTT)) [µg/mL]	tissue distribution [5]	metabolic stability [6]	number of surviving mice on 5 days after the infection ([2]; 1 mg/kg subcutaneously once)
Cl.Cl.Cl.O=c1ccc2ncc(F)cc2n1CCN1CCC(NCc2cc3c(cn2)OCCO3)CC1 [1-(2-(4-((2,3-dihydro(1,4)dioxino(2,3-c)pyridin-7-ylmethyl)amino)piperidin-1-yl)ethyl)-7-fluoro-1,5-naphthyridin-2(1H)-one trihydrochloride]	nonhygroscopic	–	–	–	–	–	–	–	–	–
COc1cnc2ccc(=O)n(CCN3CCC(NCc4cc5c(cn4)OCCO5)CC3)c2c1 [Example 2, 1-(2-(4-((2,3-dihydro(1,4)dioxino(2,3-c)pyridin-7-ylmethyl)amino)piperidin-1-yl)ethyl)-7-methoxy-1,5-naphthyridin-2(1H)-one hydrochloride]	–	0.0313	0.0313	all mice	higher	higher	≥ 51.2	higher	higher	–
O=c1ccc2ncc(F)cc2n1CCN1CCC(NCc2cc3c(cn2)OCCO3)CC1 [Example 4, 1-(2-(4-((2,3-dihydro(1,4)dioxino(2,3-c)pyridin-7-ylmethyl)amino)piperidin-1-yl)ethyl)-7-fluoro-1,5-naphthyridin-2(1H)-one hydrochloride]	–	0.0313	0.0313	all mice	higher	higher	≥ 51.2	higher	higher	–
O=c1ccc2ncc(Cl)cc2n1CCN1CCC(NCc2cc3c(cn2)OCCO3)CC1 [Example 77, 7-chloro-1-(2-(4-((2,3-dihydro(1,4)dioxino(2,3-c)pyridin-7-ylmethyl)amino)piperidin-1-yl)ethyl)-1,5-naphthyridin-2(1H)-one hydrochloride]	–	0.0313	0.0625	all mice	higher	higher	≥ 51.2	higher	higher	–
COc1cnc2ccc(=O)n(CCN3CCC(NCc4cc5c(cn4)OCCO5)CC3)c2n1 [Example 85, 5-(2-(4-((2,3-dihydro(1,4)dioxino(2,3-c)pyridin-7-ylmethyl)amino)piperidin-1-yl)ethyl-3-methoxypyrido(2,3-b)pyrazin-6(5H)-one hydrochloride]	–	0.0313	0.0313	–	higher	higher	≥ 51.2	higher	higher	four mice out of five
